{"source": "patent US10214741B2", "about": "“Methods and compositions for inhibiting retinopathy of prematurity” (University of Utah Research Foundation, priority 2014, dated 2019)", "key": {"[1]": {"system": "p-STAT3", "experiment": "Western blot of p-STAT3 in hRMVECs", "type": "cell-based, human", "details": "VEGFA stimulation", "experimental": "hRMVECs (Cell Systems, Kirkland, Wash.) were maintained in EGM-2 endothelial growth medium (Lonza, Walkers-ville, MD) supplemented with 5% fetal bovine serum. Cells of passage 3 to 5 were used for experiments. Confluent cells in six-well plates were starved for 16 hours and then treated with 20 ng/mL VEGFA or PBS for 24 hours for qPCR or 30 minutes for p-VEGFR2, p-EPOR, and p-STAT3.\n(§1) For siRNA transfection, hRMVECs at 70% confluency were transfected in six-well plates with siRNAs targeting human EPOR, VEGFR2, or STAT3 (Life Technologies, Carlsbad, Calif.) using Lipofectamine 2000 reagent (Invitrogen by Life Technologies, Carlsbad, Calif.). A silencer selective negative control siRNA was used as control.\n(§2) For cell proliferation assays, hRMVECs were plated into 96-well plates at a density of 5000 cells per well. […] Cell number was measured with a Vybrant MTT cell proliferation assay kit (Life Technologies, Carlsbad, Calif.).\n(§3) Dissected retinas and hRMVECs were lysed in radioimmunoprecipitation assay buffer with 1:100 protease inhibitors (Roche Diagnostics, Indianapolis, Ind.) and 2 mmol/L sodium orthovanadate and were homogenized and centrifuged at 13,000 rpm (15,700 g) for 10 minutes at 4° C. Total protein in the supernatant fluid was quantified by a bicinchoninic acid assay (Pierce BCA; Thermo Fisher Scientific, Waltham, Mass.). […] At least six samples from each group were measured and analyzed."}, "[2]": {"system": "NOX4", "experiment": "ROS generation mediated by NOX4 in hRMVECs", "type": "cell-based, human"}, "[3]": {"system": "severe ROP", "details": "weekly subcutaneous injections; preterm infants (n=102); cited from earlier work"}, "[4]": {"system": "hRMVECs", "experiment": "VEGFA-induced hRMVEC proliferation assay (MTT)", "type": "cell-based, human", "details": "20 ng/mL VEGFA 24 hours; SU5416 5 μmol/L, AG490 10 μmol/L, siRNA transfection", "experimental": "as §1\nFor cell proliferation assays, hRMVECs were plated into 96-well plates at a density of 5000 cells per well. At 24 hours after transfection with siRNA, cells were starved in serum-free medium for 24 hours and then were incubated with 20 ng/mL VEGFA or control PBS for another 24 hours. To inhibit VEGFR2 or STAT3 activation, cells were pretreated with 5 μmol/L of the VEGFR2 tryosine-kinase inhibitor semaxanib (SU5416), 10 μmol/L of the JAK2/STAT3 inhibitor AG490 (both from Sigma-Aldrich, St. Louis, Mo.), or dimethyl sulfoxide (DMSO) vehicle control for 1 hour before addition of VEGFA. Cell number was measured with a Vybrant MTT cell proliferation assay kit (Life Technologies, Carlsbad, Calif.)."}, "[5]": {"system": "hRMVECs", "experiment": "TUNEL+ cells in hRMVECs", "type": "cell-based, human", "details": "vs. DMSO"}, "[6]": {"system": "ROP+SO model", "experiment": "IVNV in rat ROP model rescued in 28% oxygen (ROP+SO model)", "type": "in vivo", "details": "intraperitoneal, p18, vs. PBS", "source_text": "Activation of NADPH oxidase generally requires aggregation of a NOX isoform (NOX1-5, Duox1 or 2) with membrane bound p22phox; for NOX1-3 activation, aggregation with Rac1 and cytoplasmic subunits p47phox, p67phox or homologs is also required. Few studies address oxygen effects on NADPH oxidase regulated signaling in ROP or development. Studying NADPH oxidase in vivo is also complicated, because 1) of compensation from NOX isoforms or homologs, which differ in different tissues, and 2) most inhibitors are not specific. In this example, oxygen stresses were varied by using 3 different OIR models: ROP and ROP+SO models in rat and OIR model in mouse. NADPH oxidase-induced signaling in ECs was targeted by reducing leukocyte/macrophages, which generate ROS through NADPH oxidase, or with a transgenic mouse. In rat ROP and ROP+SO models, macrophages ˜75% (FIG. 7A) were reduced with 1 uL intravitreal clodronate). […] Macrophages have multiple effects on angiogenesis including through non-NADPH oxidase mechanisms, so a more specific method was used to study NADPH oxidase-related signaling. NOX 1, 2, 4 are known to be involved in pathologic retinal angiogenesis; NOX2 is in macrophages and ECs. Therefore p47phox−/− mice were used to reduce NADPH oxidase activation from NOX 1-3. […]\n7 experiments were conducted to accomplish three specific objectives. […] Pup weights were monitored. […]"}, "[7]": {"system": "rat ROP model", "experiment": "Lectin-stained retinal flat mounts, IVNV and AVA, rat ROP model (rat 50/10 OIR model)", "type": "in vivo"}, "[8]": {"biological_target": "T1, p-VEGFR2 (Homo sapiens, UniProt P35968)", "T1 construct": "Dissected retinas and hRMVECs were lysed in radioimmunoprecipitation assay buffer; host or cells: hRMVECs", "T1 sequence (P35968 20-1356)": "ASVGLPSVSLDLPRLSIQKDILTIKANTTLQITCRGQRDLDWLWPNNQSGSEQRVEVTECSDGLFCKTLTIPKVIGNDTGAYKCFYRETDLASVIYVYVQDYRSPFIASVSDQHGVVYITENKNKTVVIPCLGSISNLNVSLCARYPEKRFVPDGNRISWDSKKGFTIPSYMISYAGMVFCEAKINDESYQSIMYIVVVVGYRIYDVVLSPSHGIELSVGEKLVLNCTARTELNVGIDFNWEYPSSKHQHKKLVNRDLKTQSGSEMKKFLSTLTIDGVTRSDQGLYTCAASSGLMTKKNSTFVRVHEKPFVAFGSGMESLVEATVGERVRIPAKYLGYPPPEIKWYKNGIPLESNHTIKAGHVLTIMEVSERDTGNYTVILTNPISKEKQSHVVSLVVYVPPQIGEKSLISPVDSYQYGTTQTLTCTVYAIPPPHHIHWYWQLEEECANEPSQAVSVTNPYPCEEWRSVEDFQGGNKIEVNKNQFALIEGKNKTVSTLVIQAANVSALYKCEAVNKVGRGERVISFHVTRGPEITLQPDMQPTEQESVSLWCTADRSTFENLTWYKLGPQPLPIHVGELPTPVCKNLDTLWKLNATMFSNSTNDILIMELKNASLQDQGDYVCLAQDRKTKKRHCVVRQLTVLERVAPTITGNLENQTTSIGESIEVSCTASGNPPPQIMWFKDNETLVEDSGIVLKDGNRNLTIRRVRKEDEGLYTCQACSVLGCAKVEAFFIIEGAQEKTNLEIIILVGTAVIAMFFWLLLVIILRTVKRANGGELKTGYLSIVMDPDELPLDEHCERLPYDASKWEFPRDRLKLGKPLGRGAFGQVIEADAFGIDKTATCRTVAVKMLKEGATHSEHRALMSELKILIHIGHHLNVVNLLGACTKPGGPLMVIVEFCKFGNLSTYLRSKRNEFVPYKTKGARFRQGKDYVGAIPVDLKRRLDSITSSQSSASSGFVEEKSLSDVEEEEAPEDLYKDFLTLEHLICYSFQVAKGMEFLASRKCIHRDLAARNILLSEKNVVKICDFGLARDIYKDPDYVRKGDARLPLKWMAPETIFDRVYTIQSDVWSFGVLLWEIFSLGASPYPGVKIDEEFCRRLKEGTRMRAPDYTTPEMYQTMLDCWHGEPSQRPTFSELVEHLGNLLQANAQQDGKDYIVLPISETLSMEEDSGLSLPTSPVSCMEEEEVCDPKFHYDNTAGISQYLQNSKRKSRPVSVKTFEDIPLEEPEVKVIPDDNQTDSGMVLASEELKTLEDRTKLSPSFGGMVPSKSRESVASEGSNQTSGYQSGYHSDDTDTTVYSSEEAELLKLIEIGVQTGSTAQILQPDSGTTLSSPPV", "experiment": "Western blot of p-VEGFR2 in hRMVECs", "type": "cell-based", "details": "30 minutes of EPO treatment", "excerpt": "For siRNA transfection, hRMVECs at 70% confluency were transfected in six-well plates with siRNAs targeting human EPOR, VEGFR2, or STAT3 (Life Technologies, Carlsbad, Calif.) using Lipofectamine 2000 reagent (Invitrogen by Life Technologies, Carlsbad, Calif.). […]\nDissected retinas and hRMVECs were lysed in radioimmunoprecipitation assay buffer with 1:100 protease inhibitors (Roche Diagnostics, Indianapolis, Ind.) and 2 mmol/L sodium orthovanadate and were homogenized and centrifuged at 13,000 rpm (15,700 g) for 10 minutes at 4° C. Total protein in the supernatant fluid was quantified by a bicinchoninic acid assay (Pierce BCA; Thermo Fisher Scientific, Waltham, Mass.). […] Blots were visualized, and the relative densities of bands were calculated as described herein, using gel analysis software (UN-SCAN-IT gel, version 6.1; Silk Scientific, Orem, Utah). Relative activities were calculated as the ratio of phosphorylated to total protein or to β-actin and are expressed as fold difference compared with control. […]"}, "[9]": {"system": "p-EPOR", "experiment": "Western blot of p-EPOR in hRMVECs", "type": "cell-based, human", "details": "30 minutes of EPO treatment", "source_text": "(§4) hRMVECs (Cell Systems, Kirkland, Wash.) were maintained in EGM-2 endothelial growth medium (Lonza, Walkers-ville, MD) supplemented with 5% fetal bovine serum. Cells of passage 3 to 5 were used for experiments. […]\nas §1, §2\nas §3, with “Blots” for “At least six samples from each group”, “visualized,” for “measured”, “the relative densities of bands were calculated as described herein, using gel analysis software (UN-SCAN-IT gel, version 6.1; Silk Scientific, Orem, Utah). […]” for “analyzed.”"}, "[10]": {"system": "EPOR", "experiment": "EPOR expression in hRMVECs (qPCR, Western blot)", "type": "cell-based, human", "details": "overnight treatment; 20 ng/mL VEGFA or 10 IU/mL EPO; vs PBS", "source_text": "as §4, §1\nTotal RNA of cells was extracted by TRI Reagent (Sigma-Aldrich, St. Louis, Mo.). For dissected retinas, total RNA was extracted using an RNeasy mini kit (Qiagen, Valencia, Calif.). RNA was quantified using a NanoDrop spectrophotometer (Thermo Fisher Scientific, Waltham, Mass.). cDNA was generated with the use of a high-capacity cDNA archive kit (Life Technologies, Carlsbad, Calif.). qPCR was performed on a Mastercycler ep realplex system (Eppendorf, Hauppauge, N.Y.) with the use of SYBR Green master mix (Roche Diagnostics, Indianapolis, Ind.) and primers synthesized by the core research facility of the University of Utah. Expression levels for VEGFA were normalized to the mean value of internal control β-actin. […]\nDissected retinas and hRMVECs were lysed in radioimmunoprecipitation assay buffer with 1:100 protease inhibitors (Roche Diagnostics, Indianapolis, Ind.) and 2 mmol/L sodium orthovanadate and were homogenized and centrifuged at 13,000 rpm (15,700 g) for 10 minutes at 4° C. Total protein in the supernatant fluid was quantified by a bicinchoninic acid assay (Pierce BCA; Thermo Fisher Scientific, Waltham, Mass.). […] Blots were visualized, and the relative densities of bands were calculated as described herein, using gel analysis software (UN-SCAN-IT gel, version 6.1; Silk Scientific, Orem, Utah). Relative activities were calculated as the ratio of phosphorylated to total protein or to β-actin and are expressed as fold difference compared with control. At least six samples from each group were measured and analyzed."}}, "note": "“Also recorded” adds a separate entry of the source."}
{"molecule": "CO[C@@H]1[C@@H]2OP(=O)(O)OC[C@H]2O[C@H]1n1c(Sc2ccc(Cl)cc2)nc2c(N)ncnc21", "note": "[8CPT, 8CPT 2′OMe-cAMP]", "values": [{"measurement": "VEGFA-induced p-STAT3", "setting": "[1]", "result": "inhibits VEGF (V)-induced STAT3 activation"}, {"measurement": "basal and VEGF-induced ROS generation", "setting": "[2]", "result": "inhibits VEGF (V)-induced STAT3 activation, B) basal and VEGF-induced ROS generation"}]}
{"molecule": "darbepoietin", "values": [{"measurement": "occurrence of severe ROP", "setting": "[3]", "result": "neither increased nor reduced the occurrence of severe ROP"}]}
{"molecule": "N#C/C(=C/c1ccc(O)c(O)c1)C(=O)NCc1ccccc1", "note": "[AG490]", "values": [{"measurement": "VEGFA-induced hRMVEC proliferation", "setting": "[4]", "result": "reduced VEGFA-induced hRMVEC proliferation to baseline"}, {"measurement": "TUNEL+ cells", "setting": "[5]", "result": "increases TUNEL+ cells"}, {"measurement": "IVNV", "setting": "[6]", "result": "inhibited Phase II IVNV in the ROP+SO; also recorded: reduced IVNV"}]}
{"molecule": "erythropoietin [EPO]", "values": [{"measurement": "Phase II IVNV", "setting": "[7]; ROP model", "result": "did not reduce Phase II IVNV"}, {"measurement": "PRVD in Phase I", "setting": "[7]; delivered at early ages", "result": "restored PRVD in Phase I"}, {"measurement": "restoration of developmental retinal vascularization", "setting": "[7]; exogenous", "result": 40, "unit": "%"}, {"measurement": "p-VEGFR2 level", "setting": "[8]", "result": "did not increase p-EPOR and p-VEGFR2 levels"}, {"measurement": "p-EPOR level", "setting": "[9]", "result": "did not increase p-EPOR and p-VEGFR2 levels"}, {"measurement": "EPOR protein", "setting": "[10]", "result": "led to an increase in EPOR protein"}]}
